Data reported in patent publication US12636297B2, “Boronic acid derivatives and therapeutic uses thereof” (priority 2019, dated 2026).
Like-named read-outs stand apart in the source and are kept apart here.

Columns and labels:
[1] = system: carbapenem-resistant (CR) Acinetobacter baumannii (AB); experiment: Broth microdilution MIC of β-lactams alone and with Compound 1 against carbapenem-resistant Acinetobacter baumannii clinical isolates; type: cell-based; settings: Compound 1 at fixed 4 μg/mL; for % susceptible, [S]: breakpoints MER ≤8 μg/mL, TOL ≤4 μg/mL
Protocol: (§1) In this example the in vitro activity of Compound 1 was evaluated in combination with several β-lactams including sulbactam, meropenem, and ceftolozane against clinical isolates of carbapenem-resistant (CR) Acinetobacter baumannii (AB) and Pseudomonas aeruginosa (PA).

[2] = system: Pseudomonas aeruginosa (PA); experiment: Broth microdilution MIC of β-lactams alone and with Compound 1 against Pseudomonas aeruginosa clinical isolates (representative and challenge panels); type: cell-based; settings: for MIC Distribution, % of isolates: Compound 1 at 8 μg/mL; for MIC Distribution, % of isolates / Minimum Inhibitory Concentration Distribution, % of isolates: AVI and TAZ at 4 μg/mL; for Minimum Inhibitory Concentration Distribution, % of isolates: representative panel of PA (N = 500), without Compound 1; for % susceptible, [S] / MIC50 / MIC90: Compound 1, AVI, and TAZ at fixed 4 μg/mL; for % susceptible, [S]: breakpoints MER ≤8, TOL ≤4, CAZ ≤8 μg/mL; for MIC50 / MIC90: Pseudomonas aeruginosa
Protocol: as §1

P. aeruginosa = experiment: Susceptibility testing of 262 P. aeruginosa strains with meropenem MIC >2 μg/mL; type: cell-based, Pseudomonas aeruginosa; settings: Compound 1 at 8 μg/mL, breakpoints ≤8 μg/mL meropenem and cefepime, ≤4 μg/mL ceftolozane, ≤16 μg/mL piperacillin
Protocol: In addition, 509 Carbapenem-Resistant Enterobacteriaceae were tested with meropenem, cefepime, and ceftolozane alone and in combination with Compound 1 at 8 μg/mL. Furthermore, 262 strains of P. aeruginosa with a meropenem MIC>2 μg/mL were tested with meropenem, ceftolozane, cefepime and piperacillin alone and in combination with Compound 1 at 8 μg/mL.
262 strains of P. aeruginosa having a meropenem MIC greater than 2 μg/mL were tested with meropenem, ceftolozane, cefepime and piperacillin alone and Compound 1 at 8 μg/mL.

[3] = system: carbapenem resistant Enterobacteriaceae (CRE); experiment: MIC of antibiotics with Compound 1 against panel of 510 CRE clinical isolates; type: cell-based; settings: antibiotic alone
Protocol: In this example, the antibiotics meropenem, cefepime, ceftolozane and cefiderocol, were tested in combination with Compound 1 at 4 μg/ml and 8 μg/ml against a panel of 510 clinical isolates representing various types of carbapenem resistant Enterobacteriaceae (CRE). Cefiderocol was tested at standard conditions, in […] media.

[4] = system: carbapenem resistant Acinetobacter baumannii; experiment: MIC of antibiotics with Compound 1 against panel of 503 carbapenem resistant Acinetobacter baumannii clinical isolates; type: cell-based; settings: carbapenem resistant Acinetobacter baumannii (N = 503); antibiotic alone
Protocol: In another experiment, various antibiotics, meropenem, cefepime, ceftolozane and cefiderocol, were tested in combination with Compound 1 at 4 μg/ml and 8 μg/ml against the panel of 503 clinical isolates of carbapenem resistant Acinetobacter baumannii. […] Cefiderocol was tested at standard conditions, in […] media.

[5] = non-carbapenemase producing CRE, N = 45

## C[C@@H](O)[C@H]1C(=O)N2C(C(=O)O)=C(S[C@@H]3CN[C@H](C(=O)N(C)C)C3)[C@H](C)[C@H]12 [MER, meropenem]
[1]; AB CP (100), defined carbapenemases
  % susceptible, [S]: (0.0) %
[1]; Acinetobacter baumannii, AB CP (100), defined carbapenemases, read-out: MIC50
  MIC50: > 32 µg/mL
[1]; Acinetobacter baumannii, AB CP (100), defined carbapenemases, read-out: MIC90
  MIC90: > 32 µg/mL
[1]; CRAB (300)
  MIC50: >32/>32 μg/mL
  MIC90: >32/>32 μg/mL
  % susceptible, [S]: (1.0) %
[2]; MIC 0.125 μg/mL, PA CAZ-AVI R (CAZ-AVI >8 μg/mL)
  MIC Distribution, % of isolates: .3%
[2]; MIC 0.125 μg/mL, PA MER NS (MER >2 μg/mL), N = 612
  MIC Distribution, % of isolates: 0.0%
[2]; MIC 0.125 μg/mL, PA TOL-TAZ NS (TOL-TAZ >4 μg/mL)
  MIC Distribution, % of isolates: 1.3%
[2]; MIC 0.125 μg/mL
  Minimum Inhibitory Concentration Distribution, % of isolates: 14.2%
[2]; MIC 0.25 μg/mL, PA CAZ-AVI R (CAZ-AVI >8 μg/mL)
  MIC Distribution, % of isolates: .6%
[2]; MIC 0.25 μg/mL, PA MER NS (MER >2 μg/mL), N = 612
  MIC Distribution, % of isolates: .0%
[2]; MIC 0.25 μg/mL, PA TOL-TAZ NS (TOL-TAZ >4 μg/mL)
  MIC Distribution, % of isolates: 2.7%
[2]; MIC 0.25 μg/mL
  Minimum Inhibitory Concentration Distribution, % of isolates: 33.0%
[2]; MIC 0.5 μg/mL, PA CAZ-AVI R (CAZ-AVI >8 μg/mL)
  MIC Distribution, % of isolates: .2%
[2]; MIC 0.5 μg/mL, PA MER NS (MER >2 μg/mL), N = 612
  MIC Distribution, % of isolates: .0%
[2]; MIC 0.5 μg/mL, PA TOL-TAZ NS (TOL-TAZ >4 μg/mL)
  MIC Distribution, % of isolates: 3.7%
[2]; MIC 0.5 μg/mL
  Minimum Inhibitory Concentration Distribution, % of isolates: 51.0%
[2]; MIC 1 μg/mL, PA CAZ-AVI R (CAZ-AVI >8 μg/mL)
  MIC Distribution, % of isolates: .5%
[2]; MIC 1 μg/mL, PA MER NS (MER >2 μg/mL), N = 612
  MIC Distribution, % of isolates: .0%
[2]; MIC 1 μg/mL, PA TOL-TAZ NS (TOL-TAZ >4 μg/mL)
  MIC Distribution, % of isolates: 6.0%
[2]; MIC 1 μg/mL
  Minimum Inhibitory Concentration Distribution, % of isolates: 66.2%
[2]; MIC 2 μg/mL, PA CAZ-AVI R (CAZ-AVI >8 μg/mL)
  MIC Distribution, % of isolates: .8%
[2]; MIC 2 μg/mL, PA MER NS (MER >2 μg/mL), N = 612
  MIC Distribution, % of isolates: .0%
[2]; MIC 2 μg/mL, PA TOL-TAZ NS (TOL-TAZ >4 μg/mL)
  MIC Distribution, % of isolates: 8.7%
[2]; MIC 2 μg/mL
  Minimum Inhibitory Concentration Distribution, % of isolates: 73.2%
[2]; MIC 4 μg/mL, PA CAZ-AVI R (CAZ-AVI >8 μg/mL)
  MIC Distribution, % of isolates: 1.0%
[2]; MIC 4 μg/mL, PA MER NS (MER >2 μg/mL), N = 612
  MIC Distribution, % of isolates: .5%
[2]; MIC 4 μg/mL, PA TOL-TAZ NS (TOL-TAZ >4 μg/mL)
  MIC Distribution, % of isolates: 13.7%
[2]; MIC 4 μg/mL
  Minimum Inhibitory Concentration Distribution, % of isolates: 79.8%
[2]; MIC 8 μg/mL, PA CAZ-AVI R (CAZ-AVI >8 μg/mL)
  MIC Distribution, % of isolates: 8.2%
[2]; MIC 8 μg/mL, PA MER NS (MER >2 μg/mL), N = 612
  MIC Distribution, % of isolates: 7.5%
[2]; MIC 8 μg/mL, PA TOL-TAZ NS (TOL-TAZ >4 μg/mL)
  MIC Distribution, % of isolates: 22.1%
[2]; MIC 8 μg/mL
  Minimum Inhibitory Concentration Distribution, % of isolates: 84.8%
[2]; MIC 16 μg/mL, PA CAZ-AVI R (CAZ-AVI >8 μg/mL)
  MIC Distribution, % of isolates: 8.9%
[2]; MIC 16 μg/mL, PA MER NS (MER >2 μg/mL), N = 612
  MIC Distribution, % of isolates: 6.7%
[2]; MIC 16 μg/mL, PA TOL-TAZ NS (TOL-TAZ >4 μg/mL)
  MIC Distribution, % of isolates: 32.8%
[2]; MIC 16 μg/mL
  Minimum Inhibitory Concentration Distribution, % of isolates: 90.4%
[2]; MIC 32 μg/mL, PA CAZ-AVI R (CAZ-AVI >8 μg/mL)
  MIC Distribution, % of isolates: 3.2%
[2]; MIC 32 μg/mL, PA MER NS (MER >2 μg/mL), N = 612
  MIC Distribution, % of isolates: 0.4%
[2]; MIC 32 μg/mL, PA TOL-TAZ NS (TOL-TAZ >4 μg/mL)
  MIC Distribution, % of isolates: 58.2%
[2]; MIC 32 μg/mL
  Minimum Inhibitory Concentration Distribution, % of isolates: 95.4%
[2]; MIC >32 μg/mL, PA CAZ-AVI R (CAZ-AVI >8 μg/mL)
  MIC Distribution, % of isolates: 100.0%
[2]; MIC >32 μg/mL, PA MER NS (MER >2 μg/mL), N = 612
  MIC Distribution, % of isolates: 100.0%
[2]; MIC >32 μg/mL, PA TOL-TAZ NS (TOL-TAZ >4 μg/mL)
  MIC Distribution, % of isolates: 100.0%
[2]; MIC >32 μg/mL
  Minimum Inhibitory Concentration Distribution, % of isolates: 100.0%
[2]; MIC ≤0.06 μg/mL
  Minimum Inhibitory Concentration Distribution, % of isolates: 4.8%
[2]; MIC ≥0.06 μg/mL, PA CAZ-AVI R (CAZ-AVI >8 μg/mL)
  MIC Distribution, % of isolates: .3%
[2]; MIC ≥0.06 μg/mL, PA MER NS (MER >2 μg/mL), N = 612
  MIC Distribution, % of isolates: 0.0%
[2]; MIC ≥0.06 μg/mL, PA TOL-TAZ NS (TOL-TAZ >4 μg/mL)
  MIC Distribution, % of isolates: 0.3%
[2]; PA (CAZ-AVI MIC >8) (37)
  % susceptible, [S]: (18.9) %
  MIC50: 32 µg/mL
  MIC90: > 32 µg/mL
[2]; PA (Challenge, 652)
  % susceptible, [S]: (31.9) %
  MIC50: 16 µg/mL
  MIC90: > 32 µg/mL
[2]; PA (MER MIC >2) (612)
  % susceptible, [S]: (27.5) %
  MIC50: 32 µg/mL
  MIC90: > 32 µg/mL
[2]; PA (Representative, 500)
  % susceptible, [S]: (84.8) %
  MIC50: 0.5 µg/mL
  MIC90: 16 µg/mL
[2]; PA (TOL-TAZ MIC >4) (39)
  % susceptible, [S]: (21.1) %
  MIC50: 32 µg/mL
  MIC90: > 32 µg/mL
P. aeruginosa; All strains (N = 262), meropenem MIC >2 μg/mL
  % of susceptible organisms at breakpoints: 42%
P. aeruginosa; MBL (N = 56)
  % of susceptible organisms at breakpoints: 7%
P. aeruginosa; No MBL (N = 206)
  % of susceptible organisms at breakpoints: 51%
[3]; CRE KPC, N = 168
  MIC50: 32 µg/mL
  MIC90: > 32 µg/mL
[3]; CRE MBL, N = 145
  MIC50: > 32 µg/mL
  MIC90: > 32 µg/mL
[3]; CRE OXA, N = 152
  MIC50: 32 µg/mL
  MIC90: > 32 µg/mL
[3]; [5]
  MIC50: 8 µg/mL
  MIC90: 16 µg/mL
[4]
  MIC50: > 32 µg/mL
  MIC90: > 32 µg/mL
